Reference: patent US20250325542A1, “INHIBITORS OF ANTIMOCROBIAL RESISTANCE AND METHOS USING SAME” (Baylor College of Medicine, priority 2022, published 2025)

system: E. coli expressing NDM-1; assay: not given; assay type: cell-based; conditions: comparison of imipenem MIC shifts

| Compound | synergy with imipenem |
| --- | --- |
| NCc1cccc(N2Cc3ccc(-c4ccc(C(=O)O)c(O)c4)cc3C2)c1 [CDD-3080, 4-(2-(3-(aminomethyl)phenyl)isoindolin-5-yl)-2-hydroxybenzoic acid] | reduced synergy compared to CDD-2376 and CDD-2511 |
| NCc1cccc(NC(=O)c2cccc(-c3ccc(C(=O)O)c(O)c3)c2)c1 [CDD-2985, 3′-((3-(aminomethyl)phenyl)carbamoyl)-3-hydroxy-[1,1′-biphenyl]-4-carboxylic acid] | reduced synergy compared to CDD-2376 and CDD-2511 |
| CNCc1cccc(NCc2ccc(-c3cccc(C(=O)O)c3O)o2)c1 [CDD-2522, 2-hydroxy-3-(5-(((3-((methylamino)methyl)phenyl)amino)methyl)furan-2-yl)benzoic acid] | reduced synergy compared to CDD-2376 and CDD-2511 |

biological target: OXA-48 (Klebsiella pneumoniae, UniProt Q6XEC0); assay: biochemical; assay type: biochemical; conditions: not given
Sequence (Q6XEC0 whole entry, looked up, species assumed): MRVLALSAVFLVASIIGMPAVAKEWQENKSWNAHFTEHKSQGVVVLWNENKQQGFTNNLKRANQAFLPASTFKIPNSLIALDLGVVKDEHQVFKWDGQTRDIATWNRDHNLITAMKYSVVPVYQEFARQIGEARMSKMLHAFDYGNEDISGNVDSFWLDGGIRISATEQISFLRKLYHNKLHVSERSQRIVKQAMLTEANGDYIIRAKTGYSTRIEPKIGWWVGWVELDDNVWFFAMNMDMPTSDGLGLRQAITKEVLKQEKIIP

| Compound | Ki [µM] |
| --- | --- |
| COc1cc(-c2cc(O)cc(C(=O)O)c2)ccc1C(=O)O [CDD-2724, 5-hydroxy-3′-methoxy-[1,1′-biphenyl]-3,4′-dicarboxylic acid] | 0.63 ± 0.13 |
| CNC(=O)CCc1ccc(CNc2cccc(CCCNCc3ccccc3-c3cccc(C(=O)O)c3)c2)cc1 [CDD-2819, 2′-(((3-(3-((4-(3-(methylamino)-3-oxopropyl)benzyl)amino)phenyl)propyl)amino)methyl)-[1,1′-biphenyl]-3-carboxylic acid] | 88 ± 4.4 |

same assay, conditions: nitrocefin 30 μM, OXA-48 0.1 nM; read-out: OXA-48 Ki

| Ki [µM] | Compound |
| --- | --- |
| 7.6 ± 1 | CN(C)C(=O)C1CCN(c2ccc(CNCc3ccccc3-c3cccc(C(=O)O)c3)cc2C#N)CC1 [CDD-2836, 2′-(((3-cyano-4-(4-(dimethylcarbamoyl)piperidin-1-yl)benzyl)amino)methyl)-[1,1′-biphenyl]-3-carboxylic acid] |
| 127 ± 86 | Nc1cccc(CCCNCc2ccccc2-c2cccc(C(=O)O)c2)c1 [CDD-2820, 2′-(((3-(3-aminophenyl)propyl)amino)methyl)-[1,1′-biphenyl]-3-carboxylic acid] |

same assay, conditions: relative to the related analogue named in the sentence

| Compound | fold decrease in Ki / enhancement of potency against OXA-48 [fold] |
| --- | --- |
| COc1cc(-c2cc(O)cc(C(=O)O)c2)ccc1C(=O)O [CDD-2724, 5-hydroxy-3′-methoxy-[1,1′-biphenyl]-3,4′-dicarboxylic acid] | 2 |

biological target: KPC-2 (Klebsiella pneumoniae, UniProt Q9F663); assay: KPC-2 enzyme inhibition (Ki); assay type: biochemical; conditions: not given
Sequence (Q9F663 whole entry, looked up, species assumed): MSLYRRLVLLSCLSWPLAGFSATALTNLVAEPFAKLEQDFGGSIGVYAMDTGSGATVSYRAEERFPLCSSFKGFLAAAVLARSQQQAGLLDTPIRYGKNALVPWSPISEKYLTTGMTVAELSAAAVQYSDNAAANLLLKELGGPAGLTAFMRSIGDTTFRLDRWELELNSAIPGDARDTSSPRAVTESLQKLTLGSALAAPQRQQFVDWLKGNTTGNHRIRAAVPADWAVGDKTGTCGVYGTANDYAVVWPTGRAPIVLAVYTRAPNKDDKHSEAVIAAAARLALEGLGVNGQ
Text: Several hits were identified from the qDOS38_1 library against the KPC-2 enzyme. All compounds were synthesized without linker C1a. Among the hit compounds, CDD-2312 had the highest enrichment score of 5.9 but a lower count number of 115 compared to other libraries screened at the same time.

| Compound | Ki [mM] |
| --- | --- |
| CNC(=O)c1cncc(-c2cnc(NCC(=O)O)nc2)c1 [CDD-2308, (5-(5-(methylcarbamoyl)pyridin-3-yl)pyrimidin-2-yl)glycine] | 3.58 ± 1.15 |
| CNC(=O)c1cc2cc(-c3cnc(NCC(=O)O)nc3)ccc2nc1C [CDD-2310, (5-(2-methyl-3-(methylcarbamoyl)quinolin-6-yl)pyrimidin-2-yl)glycine] | 1.24 ± 0.532 |
| COc1cc(-c2cnc(NCC(=O)O)nc2)cc(C=O)c1OCC(=O)O [CDD-2311, (5-(4-(carboxymethoxy)-3-formyl-5-methoxyphenyl)pyrimidin-2-yl)glycine] | 0.522 ± 0.113 |
| CNC(=O)c1ccc(-c2cnc(NCC(=O)O)nc2)cc1F [CDD-2309, (5-(3-fluoro-4-(methylcarbamoyl)phenyl)pyrimidin-2-yl)glycine] | 0.98 ± 0.18 |

biological target: NDM-1 (Klebsiella pneumoniae, UniProt C7C422); assay: not given; assay type: biochemical; conditions: not given
Sequence (C7C422 whole entry, looked up, species assumed): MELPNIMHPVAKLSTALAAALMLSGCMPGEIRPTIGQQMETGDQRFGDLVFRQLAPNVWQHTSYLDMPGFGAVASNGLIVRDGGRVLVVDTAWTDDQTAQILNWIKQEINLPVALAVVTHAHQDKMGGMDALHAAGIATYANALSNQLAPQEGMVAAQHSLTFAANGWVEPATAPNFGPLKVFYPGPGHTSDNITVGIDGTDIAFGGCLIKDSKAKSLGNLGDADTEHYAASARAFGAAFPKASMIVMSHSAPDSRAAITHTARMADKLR

| Compound | Ki [µM] | fold improvement in potency against NDM-1 [fold] | fold reduction of potency against NDM-1 | NDM-1 Ki (μM) |
| --- | --- | --- | --- | --- |
| NCc1cccc(N2Cc3ccc(-c4ccc(C(=O)O)c(O)c4)cc3C2)c1 [CDD-3080, 4-(2-(3-(aminomethyl)phenyl)isoindolin-5-yl)-2-hydroxybenzoic acid] | 43 ± 24 |  |  |  |
| NCc1cccc(NC(=O)c2cccc(-c3ccc(C(=O)O)c(O)c3)c2)c1 [CDD-2985, 3′-((3-(aminomethyl)phenyl)carbamoyl)-3-hydroxy-[1,1′-biphenyl]-4-carboxylic acid] | 29 ± 15 |  |  |  |
| NCc1cccc(NCc2ccc(-c3ccc(C(=O)O)c(O)c3)s2)c1 [CDD-2600, 4-(5-(((3-(aminomethyl)phenyl)amino)methyl)thiophen-2-yl)-2-hydroxybenzoic acid] | 1.6 ± 0.3 | 2 |  |  |
| CNCc1cccc(NCc2ccc(-c3ccc(C(=O)O)cc3)o2)c1 [CDD-2463, 4-(5-(((3-((methylamino)methyl)phenyl)amino)methyl)furan-2-yl)benzoic acid] | 8.5 |  | 2.5 fold |  |
| Cc1cccc(NCc2cccc(-c3ccc(C(=O)O)c(O)c3)c2)c1 [CDD-2907, 3-hydroxy-3′-((m-tolylamino)methyl)-[1,1′-biphenyl]-4-carboxylic acid] | > 100 |  |  | near-complete loss of potency |
| NCc1cccc(NCc2cc(C(=O)O)cc(-c3ccc(C(=O)O)c(O)c3)c2)c1 [CDD-2897, 5-(((3-(aminomethyl)phenyl)amino)methyl)-3′-hydroxy-[1,1′-biphenyl]-3,4′-dicarboxylic acid] | 71 ± 37 |  | more than 10 fold |  |
| CNC(=O)CCc1ccc(CNCc2cccc(NCc3ccc(-c4ccc(C(=O)O)c(O)c4)o3)c2)cc1 [CDD-2335, 2-hydroxy-4-(5-(((3-(((4-(3-(methylamino)-3-oxopropyl)benzyl)amino)methyl)phenyl)amino)methyl)furan-2-yl)benzoic acid] |  |  | 4 fold |  |
| CNCc1ccc(-c2ccc(C(=O)O)c(O)c2)o1 [CDD-2363, 2-hydroxy-4-(5-((methylamino)methyl)furan-2-yl)benzoic acid] | 397 ± 113 |  |  | weak potency |
| NCc1cccc(NCc2cncc(-c3ccc(C(=O)O)c(O)c3)c2)c1 [CDD-2998, 4-(5-(((3-(aminomethyl)phenyl)amino)methyl)pyridin-3-yl)-2-hydroxybenzoic acid] | 1.9 ± 0.6 |  |  |  |
| CC(=O)NCc1cccc(NCc2cccc(-c3ccc(C(=O)O)c(O)c3)c2)c1 [CDD-2919, 3′-(((3-(acetamidomethyl)phenyl)amino)methyl)-3-hydroxy-[1,1′-biphenyl]-4-carboxylic acid] | > 100 |  |  | near-complete loss of potency |

same assay, conditions: imipenem 40 μM, NDM-1 2 nM, 10 μM ZnSO4

| Compound | Ki [µM] |
| --- | --- |
| NCc1cc(O)cc(NCc2cccc(-c3ccc(C(=O)O)c(O)c3)c2)c1 [CDD-2974, 3′-(((3-(aminomethyl)-5-hydroxyphenyl)amino)methyl)-3-hydroxy-[1,1′-biphenyl]-4-carboxylic acid] | 3.5 ± 1.4 |
| CNC(=O)CCC1CCN(C(=O)c2ccc(CNCc3ccc(O)c(C(=O)O)c3)s2)CC1 [CDD-2371, 2-hydroxy-5-((((5-(4-(3-(methylamino)-3-oxopropyl)piperidine-1-carbonyl)thiophen-2-yl)methyl)amino)methyl)benzoic acid] | 217 ± 46 |
| CNC(=O)C1CCC(C(=O)NCc2ccc(NCc3ccc(O)c(C(=O)O)c3)nc2)CC1 (stereo not drawn) [CDD-2395, 2-hydroxy-5-(((5-((4-(methylcarbamoyl)cyclohexane-1-carboxamido)methyl)pyridin-2-yl)amino)methyl)benzoic acid] | 153 ± 28 |
| CNCc1cccc(NCc2cccc(-c3ccc(C(=O)O)c(O)c3)c2)c1 [CDD-2906, 3-hydroxy-3′-(((3-((methylamino)methyl)phenyl)amino)methyl)-[1,1′-biphenyl]-4-carboxylic acid] | 11 ± 2 |
| CNCc1cccc(NCc2ccc(-c3cccc(C(=O)O)c3)o2)c1 [CDD-2602, 3-(5-(((3-((methylamino)methyl)phenyl)amino)methyl)furan-2-yl)benzoic acid] | 46 ± 11 |
| NCc1cccc(NCc2ccc(-c3ccc(C(=O)O)c(O)c3)cc2)c1 [CDD-2615, 4′-(((3-(aminomethyl)phenyl)amino)methyl)-3-hydroxy-[1,1′-biphenyl]-4-carboxylic acid] | 14 ± 1.1 |
| NCc1cncc(NCc2cccc(-c3ccc(C(=O)O)c(O)c3)c2)c1 [CDD-2975, 3′-(((5-(aminomethyl)pyridin-3-yl)amino)methyl)-3-hydroxy-[1,1′-biphenyl]-4-carboxylic acid] | 25 ± 14 |
| NCc1cccc(NCc2ccnc(-c3ccc(C(=O)O)c(O)c3)c2)c1 [CDD-3060, 4-(4-(((3-(aminomethyl)phenyl)amino)methyl)pyridin-2-yl)-2-hydroxybenzoic acid] | 8.1 ± 2 |
| NCc1cccc(NCc2ccc(-c3cccc(C(=O)O)c3O)o2)c1 [CDD-2567, 3-(5-(((3-(aminomethyl)phenyl)amino)methyl)furan-2-yl)-2-hydroxybenzoic acid] | 24 ± 1.5 |
| CNCc1cccc(NCc2ccc(-c3ccc(O)c(C(=O)O)c3)o2)c1 [CDD-2510, 2-hydroxy-5-(5-(((3-((methylamino)methyl)phenyl)amino)methyl)furan-2-yl)benzoic acid] | 60 ± 10 |
| CNC(=O)Cc1cccc(NCc2cccc(-c3ccc(C(=O)O)c(O)c3)c2)c1 [CDD-2920, 3-hydroxy-3′-(((3-(2-(methylamino)-2-oxoethyl)phenyl)amino)methyl)-[1,1′-biphenyl]-4-carboxylic acid] | 87 ± 53 |
| NCc1cccc(NCc2cc(-c3ccc(C(=O)O)c(O)c3)ccn2)c1 [CDD-3059, 4-(2-(((3-(aminomethyl)phenyl)amino)methyl)pyridin-4-yl)-2-hydroxybenzoic acid] | 4.8 ± 0.4 |
| CNC(=O)CCc1ccc(CNCc2cccc(NCc3ccc(-c4ccccc4CC(=O)O)cc3)c2)cc1 [CDD-2336, 2-(4′-(((3-(((4-(3-(methylamino)-3-oxopropyl)benzyl)amino)methyl)phenyl)amino)methyl)-[1,1′-biphenyl]-2-yl)acetic acid] | 144 ± 16 |
| CNC(=O)CCc1ccc(CNCc2cccc(NCc3ccc(-c4ccc(C(=O)O)c(O)c4)o3)c2)cc1 [CDD-2335, 2-hydroxy-4-(5-(((3-(((4-(3-(methylamino)-3-oxopropyl)benzyl)amino)methyl)phenyl)amino)methyl)furan-2-yl)benzoic acid] | 13 ± 1.5 |
